Measured values: patent publication US20250170248A1, “SMARCA DEGRADERS AND USES THEREOF” (Kymera Therapeutics, Inc., priority 2021, published 2025)

Tests used:
SMARCA2 = SMARCA2 (Homo sapiens, UniProt P51531); assay: SMARCA2 Western blot degradation in MV4-11 cells; type: cell-based; set-up: SMARCA2/SMARCA4 protein degradation selectivity in MV4-11 cells; endogenous in cells; host or cells: MV4-11; conditions: for Dmax: MV4-11, MV4-11 cells, read-out: SMARCA2 MSD MV411 degradation 24 h: average Dmax %; for Dmax / DC50 / SMARCA2 MSD MV411 degradation 24 h: average Dmax %: 24 h; for DC50 / Selectivity in MV411 / SMARCA2 MSD MV411 degradation 24 h: average Dmax %: MV4-11 cells; for DC50: read-out: SMARCA2 MSD MV411 degradation 24 h: Mean external-Abs DC50; for Selectivity in MV411: SMARCA2/4 selectivity
SMARCA4 = target: T1, SMARCA4 (Homo sapiens, UniProt P51532); assay: SMARCA4 Western blot degradation in MV4-11 cells; type: cell-based; conditions: for Dmax: MV4-11, MV4-11 cells, read-out: SMARCA4 MSD MV411 degradation 24 h: average Dmax %; for Dmax / DC50: 24 h; for DC50 / SMARCA4 MSD MV411 degradation 24 h: average Dmax %: MV4-11 cells; for DC50: read-out: SMARCA4 MSD MV411 degradation 24 h: Mean external-Abs DC50
T1 construct: SMARCA2/SMARCA4 protein degradation selectivity in MV4-11 cells; endogenous in cells; host or cells: MV4-11
Protocol: Example 11. SMARCA2 and SMARCA4 Western Blot MV4-11 Degradation
Cells were seeded into 6-well plates (MV4-11:4×10^6 cells/well/1 ml) and 1 ml of 2× compound solution was added into the well to make the final concentration and the plates were mixed well and incubated for 24 hours (No cytotoxicity was observed). The cell were collected with media and spun at 3000 rpm for 5 minutes. The supernatant was aspirated and the well and the cells were washed with cold PBS once and combined for centrifugation again; the supernatant aspirated again. 200 uL pre-chilled RIPA lysis buffer (Boston BioProducts BP-115D) with protease/phosphatase inhibitor (Roche 05892791001/Roche 04906837001) was directly added into the tube to lyze the cells for 20 minutes on ice. The cell lysate were collected into EP tubes and spun at 13000 rpm for 20 minutes and 72 uL supernatant was transferred to a fresh EP tube containing 18 μL of 5× loading buffer (Beyotime Bio P0015) to make the loading samples. The samples were heated to 100° C. for 10 minutes and cooled to RT and microcentrifuged. 20 μL of samples were loaded onto SDS-PAGE gel (Novex, WG1402BOX) and the gel was run at 80 V for 20 minutes and 120 V for 1.5 hours. The samples were electrotransfer to a NC membrane using wet-transfer method with 250 mA for 2.5 hours. The membrane was blocked with LICOR blocking buffer (LI COR,927-50000) for 1 hour. The membrane was washed three times with TBST(CST #9997S), 5 minutes each. Incubation was performed with primary antibody prepared in blocking buffer with 0.1% Tween-20 (Solarbio, P8220) at 4° C. overnight (Anti-SMARCA2/BRM antibody (ab15597) 1:500; Anti-BRG1 antibody [EPR3912](ab108318) 1:1000; Rabbit anti-Bafl80 antibody [EPR15860](Abcam,ab196022) 1:1000; mouse anti-beta-Actin (8H10D10) (CST #3700) 1:10000). The membrane was washed three times with TBST, 5 minutes each. Incubation with secondary antibody was performed for 1 hour at RT (anti-rabbit IgG (Licor,926-32211) 1:5000; anti-mouse IgG (LI-COR, 926-68070) 1:5000). The membrane was washed three times with 5 minutes each and lastly the LiCOR was read.
The letter codes for SMARCA2/4 degradation potency (DC50) include: A (<1 nM), B (1-10 nM), C (>10-100 nM), and D (>100 nM). The letter codes for the percentage of SMARCA2/4 degradation after 24 hours (Dmax %) include: A (>90% degradation), B (>70-90% degradation), C (50-70% degradation), and D (<50% degradation). The letter codes of SMARCA2/4 selectivity include: A (>500 fold), B (>100-500 fold), C (10-100 fold), and D (<10 fold). Table 8. SMARCA2/4 Selectivity Results

Sequence of SMARCA2 (P51531 whole entry): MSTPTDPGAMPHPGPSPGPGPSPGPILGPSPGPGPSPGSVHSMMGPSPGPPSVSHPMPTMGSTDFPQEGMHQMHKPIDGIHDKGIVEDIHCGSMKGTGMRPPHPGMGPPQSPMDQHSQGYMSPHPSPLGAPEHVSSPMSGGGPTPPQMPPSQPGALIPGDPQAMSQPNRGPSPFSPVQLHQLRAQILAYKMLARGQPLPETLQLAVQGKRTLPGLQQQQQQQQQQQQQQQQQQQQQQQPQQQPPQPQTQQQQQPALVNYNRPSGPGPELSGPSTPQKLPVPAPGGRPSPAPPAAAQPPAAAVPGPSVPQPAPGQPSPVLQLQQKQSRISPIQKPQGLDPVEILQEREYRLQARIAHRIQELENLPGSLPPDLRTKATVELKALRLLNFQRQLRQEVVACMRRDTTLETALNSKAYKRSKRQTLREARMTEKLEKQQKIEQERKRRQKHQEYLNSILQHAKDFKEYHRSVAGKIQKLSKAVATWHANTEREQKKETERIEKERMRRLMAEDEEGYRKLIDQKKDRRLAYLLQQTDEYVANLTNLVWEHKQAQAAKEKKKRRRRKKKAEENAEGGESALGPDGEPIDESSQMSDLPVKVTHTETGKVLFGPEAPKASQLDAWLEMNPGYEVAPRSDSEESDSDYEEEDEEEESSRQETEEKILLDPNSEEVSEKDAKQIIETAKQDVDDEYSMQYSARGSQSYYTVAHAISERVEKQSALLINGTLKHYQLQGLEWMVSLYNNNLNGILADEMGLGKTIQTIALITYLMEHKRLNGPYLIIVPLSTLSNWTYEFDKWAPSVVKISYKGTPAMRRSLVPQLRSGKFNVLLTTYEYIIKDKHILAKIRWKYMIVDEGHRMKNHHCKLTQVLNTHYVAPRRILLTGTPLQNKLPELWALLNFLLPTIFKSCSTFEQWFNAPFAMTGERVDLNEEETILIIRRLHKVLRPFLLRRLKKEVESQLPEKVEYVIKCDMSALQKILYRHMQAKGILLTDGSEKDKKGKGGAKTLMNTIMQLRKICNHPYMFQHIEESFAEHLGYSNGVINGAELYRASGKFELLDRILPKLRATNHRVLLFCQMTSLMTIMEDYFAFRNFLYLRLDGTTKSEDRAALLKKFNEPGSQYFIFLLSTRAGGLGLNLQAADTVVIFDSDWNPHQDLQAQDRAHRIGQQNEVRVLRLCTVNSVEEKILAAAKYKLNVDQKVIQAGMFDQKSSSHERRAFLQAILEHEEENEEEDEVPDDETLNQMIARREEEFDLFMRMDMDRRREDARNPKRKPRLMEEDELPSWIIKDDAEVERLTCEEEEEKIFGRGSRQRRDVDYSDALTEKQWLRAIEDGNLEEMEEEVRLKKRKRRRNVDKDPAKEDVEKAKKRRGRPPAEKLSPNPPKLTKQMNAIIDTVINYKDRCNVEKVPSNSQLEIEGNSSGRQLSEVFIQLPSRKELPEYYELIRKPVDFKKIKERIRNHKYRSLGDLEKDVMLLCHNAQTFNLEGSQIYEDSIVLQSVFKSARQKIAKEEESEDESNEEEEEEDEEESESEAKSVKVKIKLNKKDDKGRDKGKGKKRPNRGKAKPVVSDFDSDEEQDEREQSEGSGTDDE
T1 sequence (P51532 whole entry): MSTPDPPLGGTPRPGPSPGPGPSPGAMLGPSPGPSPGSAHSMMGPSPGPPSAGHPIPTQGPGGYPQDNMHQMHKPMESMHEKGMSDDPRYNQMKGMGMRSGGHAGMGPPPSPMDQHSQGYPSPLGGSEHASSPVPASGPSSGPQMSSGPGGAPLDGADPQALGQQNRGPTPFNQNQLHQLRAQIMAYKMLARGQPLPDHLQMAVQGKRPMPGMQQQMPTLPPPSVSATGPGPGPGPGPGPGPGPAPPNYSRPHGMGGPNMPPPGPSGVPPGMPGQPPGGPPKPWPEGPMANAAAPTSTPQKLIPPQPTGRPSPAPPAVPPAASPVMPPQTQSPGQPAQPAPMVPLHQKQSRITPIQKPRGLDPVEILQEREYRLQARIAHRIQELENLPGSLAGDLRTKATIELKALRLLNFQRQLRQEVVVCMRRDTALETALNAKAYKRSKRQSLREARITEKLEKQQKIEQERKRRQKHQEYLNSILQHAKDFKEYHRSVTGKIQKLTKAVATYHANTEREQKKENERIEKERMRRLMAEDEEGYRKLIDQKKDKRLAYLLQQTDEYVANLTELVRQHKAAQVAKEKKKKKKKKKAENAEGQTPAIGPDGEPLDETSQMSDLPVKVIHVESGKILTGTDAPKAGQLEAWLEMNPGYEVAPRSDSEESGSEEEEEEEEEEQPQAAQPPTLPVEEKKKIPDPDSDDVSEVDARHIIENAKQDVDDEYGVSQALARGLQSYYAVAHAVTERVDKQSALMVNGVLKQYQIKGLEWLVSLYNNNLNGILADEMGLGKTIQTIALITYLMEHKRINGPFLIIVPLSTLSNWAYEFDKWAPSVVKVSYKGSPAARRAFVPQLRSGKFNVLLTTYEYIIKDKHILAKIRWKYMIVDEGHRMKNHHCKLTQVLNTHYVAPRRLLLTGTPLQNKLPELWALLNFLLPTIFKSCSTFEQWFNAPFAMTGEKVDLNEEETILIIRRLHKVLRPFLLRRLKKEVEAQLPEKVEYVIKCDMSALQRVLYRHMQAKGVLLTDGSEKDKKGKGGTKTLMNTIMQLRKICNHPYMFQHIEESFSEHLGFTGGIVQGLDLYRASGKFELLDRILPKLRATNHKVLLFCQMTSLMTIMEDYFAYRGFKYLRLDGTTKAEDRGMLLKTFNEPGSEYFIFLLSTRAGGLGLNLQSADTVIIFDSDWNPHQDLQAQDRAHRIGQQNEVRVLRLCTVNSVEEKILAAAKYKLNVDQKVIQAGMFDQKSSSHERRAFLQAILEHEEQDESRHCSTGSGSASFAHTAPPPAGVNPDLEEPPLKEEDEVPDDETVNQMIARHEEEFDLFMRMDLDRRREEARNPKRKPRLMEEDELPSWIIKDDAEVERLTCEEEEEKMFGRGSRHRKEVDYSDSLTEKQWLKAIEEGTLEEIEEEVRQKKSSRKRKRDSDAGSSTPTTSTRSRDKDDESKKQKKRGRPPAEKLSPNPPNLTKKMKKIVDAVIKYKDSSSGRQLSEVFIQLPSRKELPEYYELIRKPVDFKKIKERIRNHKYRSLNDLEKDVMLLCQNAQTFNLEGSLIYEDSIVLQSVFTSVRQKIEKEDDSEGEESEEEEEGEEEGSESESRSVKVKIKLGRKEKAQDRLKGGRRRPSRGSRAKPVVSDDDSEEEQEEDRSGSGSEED

| Dmax (SMARCA2) [%] | DC50 (SMARCA2) [nM] | Selectivity in MV411 (SMARCA2) | Dmax (SMARCA4) [%] | DC50 (SMARCA4) [nM] | SMARCA2 MSD MV411 degradation 24 h: average Dmax % (SMARCA2) | SMARCA4 MSD MV411 degradation 24 h: average Dmax % (SMARCA4) | SMILES |
| --- | --- | --- | --- | --- | --- | --- | --- |
| 50 to 70 | 10 to 100 | C (C (10-100 fold)) | < 50 | > 100 |  |  | Cc1ncsc1-c1ccc(CNC(=O)[C@@H]2C[C@@H](O)CN2C(=O)[C@@H](NC(=O)N2CCC3(CCC(N4CCC(c5cnc(N6CCN7c8cc(-c9ccccc9O)nnc8NC[C@H]7C6)nc5)CC4)CC3)CC2)C(C)(C)C)cc1 [I-68] |
| > 90 | < 1 | D (D (<10 fold)) | > 90 | 1 to 10 |  |  | Cc1ncsc1-c1ccc(CNC(=O)[C@@H]2C[C@@H](O)CN2C(=O)[C@@H](NC(=O)C2(F)CC2)C(C)(C)C)c(OCCCCN2CCC(c3ccnc(N4CCN5c6cc(-c7ccccc7O)nnc6NC[C@H]5C4)n3)CC2)c1 (single isomer, unassigned) [I-46] |
| 70 to 90 | 1 to 10 | A (A (>500 fold)) | 50 to 70 | > 100 |  |  | C#Cc1ccc([C@H](C)NC(=O)[C@@H]2C[C@@H](O)CN2C(=O)[C@@H](NC(=O)[C@H]2CCC3(CC2)C[C@H](N2CCC(c4cnc(N5CCN6c7cc(-c8ccccc8O)nnc7NC[C@H]6C5)nc4)CC2)C3)C(C)(C)C)cc1 (single isomer, unassigned) [I-56] |
| 70 to 90 | < 1 | D (D (<10 fold)) | 70 to 90 | 1 to 10 |  |  | Cc1ncsc1-c1ccc(CNC(=O)[C@@H]2C[C@@H](O)CN2C(=O)[C@@H](NC(=O)N2CC3(CC(N4CCN(c5ccnc(N6CCN7c8cc(-c9ccccc9O)nnc8NC[C@H]7C6)n5)CC4)C3)C2)C(C)(C)C)cc1 [I-72] |
|  | 1 to 10 | A (A (>500 fold)) |  | > 100 |  |  | Cc1ncsc1-c1ccc(CNC(=O)[C@@H]2C[C@@H](O)CN2C(=O)[C@@H](NC(=O)[C@H]2CCC3(CC2)C[C@H](N2CCC(c4cnc(N5CCN6c7cc(-c8ccccc8O)nnc7NC[C@H]6C5)nc4)CC2)C3)C(C)(C)C)cc1 (stereo partly shown) [I-71] |
| > 90 | 1 to 10 | C (C (10-100 fold)) | 70 to 90 | 10 to 100 |  |  | Cc1ncsc1-c1ccc(CNC(=O)[C@@H]2C[C@@H](O)CN2C(=O)[C@H](c2cc(N3CC4(CC(N5CCC(c6cnc(N7CCN8c9cc(-c%10ccccc%10O)nnc9NC[C@H]8C7)nc6)CC5)C4)C3)no2)C(C)C)cc1 (single isomer, unassigned) [I-54] |
|  | 1 to 10 | B (B (>100-500 fold)) |  | > 100 | B (B (>70-90% degradation)) | D (D (<50% degradation)) | C#Cc1ccc([C@H](C)NC(=O)[C@@H]2C[C@@H](O)CN2C(=O)[C@@H](NC(=O)[C@H]2CCC3(CC2)C[C@H](N2CCC(c4cnc(N5CCN6c7cc(-c8ccccc8O)nnc7NC[C@H]6C5)nc4)CC2)C3)C(C)(C)C)cc1 (single isomer, unassigned) [I-57] |

Further lines, the compound ahead of its results:

| SMILES | Dmax (SMARCA2) [%] | DC50 (SMARCA2) [nM] | Selectivity in MV411 (SMARCA2) | Dmax (SMARCA4) [%] | DC50 (SMARCA4) [nM] | SMARCA2 MSD MV411 degradation 24 h: average Dmax % (SMARCA2) | SMARCA4 MSD MV411 degradation 24 h: average Dmax % (SMARCA4) |
| --- | --- | --- | --- | --- | --- | --- | --- |
| CC(C)C(C(=O)N1C[C@H](O)C[C@H]1C(=O)NCc1ccc(Cl)cc1)c1cc(N2CC3(CC(N4CCC(c5cnc(N6CCN7c8cc(-c9ccccc9O)nnc8NC[C@H]7C6)nc5)CC4)C3)C2)no1 (stereo partly shown) [I-17] | < 50 | > 100 | C (C (10-100 fold)) | < 50 | > 100 |  |  |
| Cc1ncsc1-c1ccc(CNC(=O)[C@@H]2C[C@@H](O)CN2C(=O)[C@@H](c2cc(N3CC4(CC(N5CCC(c6cnc(N7CCN8c9cc(-c%10ccccc%10O)nnc9NC[C@H]8C7)nc6)CC5)C4)C3)no2)C(C)C)cc1 (single isomer, unassigned) [I-55] | > 90 | < 1 | D (D (<10 fold)) | > 90 | < 1 |  |  |
| Cc1ncsc1-c1ccc(CNC(=O)[C@@H]2C[C@@H](O)CN2C(=O)[C@@H](NC(=O)N2CC3(CCC(N4CCC(c5cnc(N6CCN7c8cc(-c9ccccc9O)nnc8NC[C@H]7C6)nc5)CC4)CC3)C2)C(C)(C)C)cc1 [I-69] | > 90 | < 1 | D (D (<10 fold)) | > 90 | 1 to 10 |  |  |
| Cc1ncsc1-c1ccc(CNC(=O)[C@@H]2C[C@@H](O)CN2C(=O)[C@@H](NC(=O)C2(F)CC2)C(C)(C)C)c(OC2CCN(Cc3cnc(N4CCc5[nH]c6nnc(-c7ccccc7O)cc6c5[C@@H]4C)nc3)CC2)c1 (single isomer, unassigned) [I-43] | < 50 | > 100 | C (C (10-100 fold)) | < 50 | > 100 |  |  |
| C#Cc1ccc(CNC(=O)[C@@H]2C[C@@H](O)CN2C(=O)[C@@H](NC(=O)[C@H]2CC[C@@H](c3ccc(-c4cnc(N5CCN6c7cc(-c8ccccc8O)nnc7NC[C@H]6C5)nc4)cc3)CC2)C(C)(C)C)cc1 [I-24] | > 90 | < 1 | D (D (<10 fold)) | > 90 | 1 to 10 |  |  |
| Cc1ncsc1-c1ccc(CNC(=O)[C@@H]2C[C@@H](O)CN2C(=O)[C@@H](NC(=O)[C@H]2CC3(CC[C@H](N4CCC(c5cnc(N6CCN7c8cc(-c9ccccc9O)nnc8NC[C@H]7C6)nc5)CC4)CC3)C2)C(C)(C)C)cc1 (single isomer, unassigned) [I-65] | > 90 | 1 to 10 | C (C (10-100 fold)) | 70 to 90 | 10 to 100 |  |  |
| Cc1ncsc1-c1ccc(CNC(=O)[C@@H]2C[C@@H](O)CN2C(=O)[C@@H](NC(=O)C2(F)CC2)C(C)(C)C)c(OC2CCN(Cc3cnc(N4CCc5[nH]c6nnc(-c7ccccc7O)cc6c5[C@H]4C)nc3)CC2)c1 (single isomer, unassigned) [I-42] | 50 to 70 | 10 to 100 | C (C (10-100 fold)) | 70 to 90 | > 100 |  |  |
| Cc1ncsc1-c1ccc(CNC(=O)[C@@H]2C[C@@H](O)CN2C(=O)[C@@H](NC(=O)[C@H]2CCC3(CC2)C[C@H](N2CCC(c4cnc(N5CCN6c7cc(-c8ccccc8O)nnc7NC[C@H]6C5)nc4)CC2)C3)C(C)(C)C)cc1 (single isomer, unassigned) [I-70] | 70 to 90 | 1 to 10 | A (A (>500 fold)) | < 50 | > 100 |  |  |
| C#Cc1ccc(CNC(=O)[C@@H]2C[C@@H](O)CN2C(=O)[C@@H](NC(=O)[C@H]2CCC3(CC2)C[C@H](N2CCC(c4cnc(N5CCN6c7cc(-c8ccccc8O)nnc7NC[C@H]6C5)nc4)CC2)C3)C(C)(C)C)cc1 (single isomer, unassigned) [I-26] |  | 1 to 10 | B (B (>100-500 fold)) |  | > 100 | B (B (>70-90% degradation)) | C (C (50-70% degradation)) |
| Cc1ncsc1-c1ccc(CNC(=O)[C@@H]2C[C@@H](O)CN2C(=O)[C@@H](NC(=O)N2CCC3(CC2)CC(N2CCC(c4cnc(N5CCN6c7cc(-c8ccccc8O)nnc7NC[C@H]6C5)nc4)CC2)C3)C(C)(C)C)cc1 [I-67] | < 50 | > 100 | C (C (10-100 fold)) | < 50 | > 100 |  |  |
| C#Cc1ccc(CNC(=O)[C@@H]2C[C@@H](O)CN2C(=O)[C@@H](NC(=O)[C@H]2CCC3(CC2)C[C@H](N2CCC(c4cnc(N5CCN6c7cc(-c8ccccc8O)nnc7NC[C@H]6C5)nc4)CC2)C3)C(C)(C)C)cc1 (single isomer, unassigned) [I-25] | 70 to 90 | < 1 | C (C (10-100 fold)) | 70 to 90 | 10 to 100 |  |  |
